Test results as given in PubChem BioAssay AID651979 (The Scripps Research Institute Molecular Screening Center, 2013).
Active and inactive are the calls of the source. No rule for the calls is given here.

Experiments:
Test in all cases: PubChem AID 651979
ABHD10 = conditions: HEK293T SILAC ABPP, NHU5 probe, LC-MS/MS ratio, at 5 µM, stronger effect = lower value
ABHD12 = conditions: HEK293T SILAC ABPP, NHU5 probe, LC-MS/MS ratio, at 5 µM, stronger effect = lower value
ABHD6 = conditions: HEK293T SILAC ABPP, NHU5 probe, LC-MS/MS ratio, at 5 µM, stronger effect = lower value
[1] = target: Acyl-protein thioesterase 1 (Homo sapiens) (UniProt O75608); conditions: HEK293T SILAC ABPP, NHU5 probe, LC-MS/MS ratio; LYPLA1; at 5 µM; stronger effect = lower value
Chain of Acyl-protein thioesterase 1 (Homo sapiens) (O75608 whole entry, looked up): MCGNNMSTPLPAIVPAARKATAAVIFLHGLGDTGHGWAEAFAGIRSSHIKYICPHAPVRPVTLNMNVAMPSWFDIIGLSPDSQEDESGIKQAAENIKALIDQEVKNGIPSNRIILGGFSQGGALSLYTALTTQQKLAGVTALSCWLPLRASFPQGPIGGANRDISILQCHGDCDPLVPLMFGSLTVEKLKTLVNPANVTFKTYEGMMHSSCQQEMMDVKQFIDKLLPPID

[2] = target: Acyl-protein thioesterase 2 (Homo sapiens) (UniProt O95372); conditions: HEK293T SILAC ABPP, NHU5 probe, LC-MS/MS ratio; LYPLA2; at 5 µM; stronger effect = lower value
Chain of Acyl-protein thioesterase 2 (Homo sapiens) (O95372 whole entry, looked up): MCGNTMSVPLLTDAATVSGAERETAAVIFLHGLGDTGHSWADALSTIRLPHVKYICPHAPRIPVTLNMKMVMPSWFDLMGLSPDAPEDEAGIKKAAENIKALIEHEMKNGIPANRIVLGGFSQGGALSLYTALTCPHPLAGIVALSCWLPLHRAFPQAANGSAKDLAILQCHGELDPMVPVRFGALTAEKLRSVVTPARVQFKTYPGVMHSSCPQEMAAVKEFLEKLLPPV

[3] = target: Acylamino-acid-releasing enzyme (Homo sapiens) (UniProt P13798); conditions: HEK293T SILAC ABPP, NHU5 probe, LC-MS/MS ratio; APEH; at 5 µM; stronger effect = lower value
Chain of Acylamino-acid-releasing enzyme (Homo sapiens) (P13798 whole entry, looked up): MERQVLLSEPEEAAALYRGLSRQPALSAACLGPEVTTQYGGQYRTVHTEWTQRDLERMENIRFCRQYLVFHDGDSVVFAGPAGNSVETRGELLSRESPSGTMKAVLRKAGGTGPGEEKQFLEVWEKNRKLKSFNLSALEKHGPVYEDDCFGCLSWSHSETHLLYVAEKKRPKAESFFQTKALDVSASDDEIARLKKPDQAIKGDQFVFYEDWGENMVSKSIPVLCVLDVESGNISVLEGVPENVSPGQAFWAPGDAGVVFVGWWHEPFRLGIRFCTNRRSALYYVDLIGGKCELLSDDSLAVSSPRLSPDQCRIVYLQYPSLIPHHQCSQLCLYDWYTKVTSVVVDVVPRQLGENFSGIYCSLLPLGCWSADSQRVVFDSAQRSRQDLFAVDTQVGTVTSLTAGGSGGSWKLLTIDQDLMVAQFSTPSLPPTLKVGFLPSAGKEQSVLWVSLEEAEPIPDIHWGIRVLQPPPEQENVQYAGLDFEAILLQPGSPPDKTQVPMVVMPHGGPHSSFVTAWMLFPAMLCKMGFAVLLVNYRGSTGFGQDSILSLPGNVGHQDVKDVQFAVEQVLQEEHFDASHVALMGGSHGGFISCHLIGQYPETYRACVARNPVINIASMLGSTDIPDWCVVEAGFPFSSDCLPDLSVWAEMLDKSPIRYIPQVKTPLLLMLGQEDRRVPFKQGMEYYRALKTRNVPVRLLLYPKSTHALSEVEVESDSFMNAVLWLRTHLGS

CTSA = conditions: HEK293T SILAC ABPP, NHU5 probe, LC-MS/MS ratio, at 5 µM, stronger effect = lower value
DDHD1 = conditions: HEK293T SILAC ABPP, NHU5 probe, LC-MS/MS ratio, at 5 µM, stronger effect = lower value
[4] = target: Dipeptidyl peptidase 9 (Homo sapiens) (UniProt Q86TI2); conditions: HEK293T SILAC ABPP, NHU5 probe, LC-MS/MS ratio; DPP9; at 5 µM; stronger effect = lower value
Chain of Dipeptidyl peptidase 9 (Homo sapiens) (Q86TI2 whole entry, looked up): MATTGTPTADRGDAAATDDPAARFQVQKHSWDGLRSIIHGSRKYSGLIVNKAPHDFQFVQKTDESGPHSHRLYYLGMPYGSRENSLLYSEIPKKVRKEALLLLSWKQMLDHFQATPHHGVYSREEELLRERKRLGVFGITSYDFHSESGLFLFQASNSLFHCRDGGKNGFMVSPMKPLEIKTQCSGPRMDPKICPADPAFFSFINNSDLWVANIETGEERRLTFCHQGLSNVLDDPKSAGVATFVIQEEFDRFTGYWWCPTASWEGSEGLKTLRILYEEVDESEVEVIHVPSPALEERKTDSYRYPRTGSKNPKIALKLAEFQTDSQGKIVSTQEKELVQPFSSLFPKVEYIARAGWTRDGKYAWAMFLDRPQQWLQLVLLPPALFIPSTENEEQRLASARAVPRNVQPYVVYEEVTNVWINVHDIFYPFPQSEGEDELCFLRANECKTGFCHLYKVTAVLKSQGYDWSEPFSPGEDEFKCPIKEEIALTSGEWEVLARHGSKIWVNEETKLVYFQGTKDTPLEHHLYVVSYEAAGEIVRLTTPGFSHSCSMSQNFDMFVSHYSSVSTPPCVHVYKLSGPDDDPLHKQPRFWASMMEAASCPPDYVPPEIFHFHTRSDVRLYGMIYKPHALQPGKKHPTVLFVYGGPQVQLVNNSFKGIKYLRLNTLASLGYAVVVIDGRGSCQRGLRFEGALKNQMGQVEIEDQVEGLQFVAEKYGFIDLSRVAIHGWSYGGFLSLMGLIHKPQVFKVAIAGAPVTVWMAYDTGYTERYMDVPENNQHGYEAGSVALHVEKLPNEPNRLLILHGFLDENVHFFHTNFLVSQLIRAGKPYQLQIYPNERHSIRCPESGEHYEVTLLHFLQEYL

ESD = conditions: HEK293T SILAC ABPP, NHU5 probe, LC-MS/MS ratio, at 5 µM, stronger effect = lower value
[5] = target: Fatty acid synthase (Homo sapiens) (UniProt P49327); conditions: HEK293T SILAC ABPP, NHU5 probe, LC-MS/MS ratio; FASN; at 5 µM; stronger effect = lower value
Chain of Fatty acid synthase (Homo sapiens) (P49327 whole entry, looked up): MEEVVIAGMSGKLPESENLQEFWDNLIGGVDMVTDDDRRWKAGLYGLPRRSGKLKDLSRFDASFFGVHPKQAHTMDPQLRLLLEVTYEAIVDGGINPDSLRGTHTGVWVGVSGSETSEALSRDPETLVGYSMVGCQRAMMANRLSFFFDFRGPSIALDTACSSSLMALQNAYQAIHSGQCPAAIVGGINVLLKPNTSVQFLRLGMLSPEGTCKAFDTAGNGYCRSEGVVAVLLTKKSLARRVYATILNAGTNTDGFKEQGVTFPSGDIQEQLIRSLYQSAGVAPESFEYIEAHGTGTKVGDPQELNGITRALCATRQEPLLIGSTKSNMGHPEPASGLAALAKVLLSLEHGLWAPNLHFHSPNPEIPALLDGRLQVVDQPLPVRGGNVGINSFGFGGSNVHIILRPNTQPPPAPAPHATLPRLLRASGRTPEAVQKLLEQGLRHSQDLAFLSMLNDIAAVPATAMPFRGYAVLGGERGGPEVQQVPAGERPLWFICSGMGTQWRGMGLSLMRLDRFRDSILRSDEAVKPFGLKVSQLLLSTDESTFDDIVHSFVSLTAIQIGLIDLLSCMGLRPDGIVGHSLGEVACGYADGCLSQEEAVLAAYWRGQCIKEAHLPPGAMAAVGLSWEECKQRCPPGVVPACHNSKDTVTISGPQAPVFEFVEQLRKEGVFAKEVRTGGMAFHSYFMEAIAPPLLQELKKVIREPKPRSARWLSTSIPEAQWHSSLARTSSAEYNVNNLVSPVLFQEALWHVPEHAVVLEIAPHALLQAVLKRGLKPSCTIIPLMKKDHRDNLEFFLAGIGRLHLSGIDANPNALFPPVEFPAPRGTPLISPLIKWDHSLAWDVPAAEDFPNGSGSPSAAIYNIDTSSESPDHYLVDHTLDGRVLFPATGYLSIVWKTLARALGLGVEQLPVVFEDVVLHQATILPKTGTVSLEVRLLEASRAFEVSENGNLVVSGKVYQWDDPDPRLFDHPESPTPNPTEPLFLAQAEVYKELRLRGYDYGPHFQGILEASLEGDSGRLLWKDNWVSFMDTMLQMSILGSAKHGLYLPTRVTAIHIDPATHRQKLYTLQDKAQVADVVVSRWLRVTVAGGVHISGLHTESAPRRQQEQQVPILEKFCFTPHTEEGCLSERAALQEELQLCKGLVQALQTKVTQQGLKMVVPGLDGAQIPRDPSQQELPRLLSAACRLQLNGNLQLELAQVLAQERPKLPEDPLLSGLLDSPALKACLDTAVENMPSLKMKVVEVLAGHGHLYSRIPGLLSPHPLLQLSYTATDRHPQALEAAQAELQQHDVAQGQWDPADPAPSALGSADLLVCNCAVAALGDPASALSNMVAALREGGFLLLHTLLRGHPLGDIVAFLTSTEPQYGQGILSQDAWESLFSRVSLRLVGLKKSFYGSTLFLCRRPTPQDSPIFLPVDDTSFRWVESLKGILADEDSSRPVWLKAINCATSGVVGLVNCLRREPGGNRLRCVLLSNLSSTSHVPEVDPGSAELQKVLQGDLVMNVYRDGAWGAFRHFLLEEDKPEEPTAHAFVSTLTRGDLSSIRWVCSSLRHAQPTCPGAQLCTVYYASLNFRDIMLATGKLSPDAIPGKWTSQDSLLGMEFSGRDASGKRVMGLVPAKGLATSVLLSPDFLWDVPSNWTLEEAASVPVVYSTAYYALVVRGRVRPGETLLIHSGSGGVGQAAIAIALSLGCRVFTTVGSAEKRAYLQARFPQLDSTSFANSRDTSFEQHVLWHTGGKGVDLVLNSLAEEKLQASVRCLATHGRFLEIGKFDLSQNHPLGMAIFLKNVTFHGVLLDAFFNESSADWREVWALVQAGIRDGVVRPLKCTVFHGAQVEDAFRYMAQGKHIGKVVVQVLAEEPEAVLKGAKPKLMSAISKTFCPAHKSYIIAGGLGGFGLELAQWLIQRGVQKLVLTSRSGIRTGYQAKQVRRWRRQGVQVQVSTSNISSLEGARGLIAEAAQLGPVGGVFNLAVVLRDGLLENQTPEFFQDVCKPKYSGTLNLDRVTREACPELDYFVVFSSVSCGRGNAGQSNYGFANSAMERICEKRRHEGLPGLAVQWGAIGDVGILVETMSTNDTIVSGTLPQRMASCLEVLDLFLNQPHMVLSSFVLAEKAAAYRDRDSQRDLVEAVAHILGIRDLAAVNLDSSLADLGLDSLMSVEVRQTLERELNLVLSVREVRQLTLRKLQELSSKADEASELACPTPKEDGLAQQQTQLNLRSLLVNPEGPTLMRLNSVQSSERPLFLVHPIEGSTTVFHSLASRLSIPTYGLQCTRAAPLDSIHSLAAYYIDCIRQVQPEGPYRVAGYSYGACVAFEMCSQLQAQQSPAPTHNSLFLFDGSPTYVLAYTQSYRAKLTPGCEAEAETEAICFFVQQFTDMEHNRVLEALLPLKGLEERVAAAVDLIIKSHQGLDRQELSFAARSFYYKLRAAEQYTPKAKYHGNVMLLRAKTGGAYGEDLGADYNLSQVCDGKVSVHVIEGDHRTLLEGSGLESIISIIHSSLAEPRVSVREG

LYPLAL1 = conditions: HEK293T SILAC ABPP, NHU5 probe, LC-MS/MS ratio, at 5 µM, stronger effect = lower value
PLA2G4A = conditions: HEK293T SILAC ABPP, NHU5 probe, LC-MS/MS ratio, at 5 µM, stronger effect = lower value
PNPLA6 = conditions: HEK293T SILAC ABPP, NHU5 probe, LC-MS/MS ratio, at 5 µM, stronger effect = lower value
PNPLA8 = conditions: HEK293T SILAC ABPP, NHU5 probe, LC-MS/MS ratio, at 5 µM, stronger effect = lower value
PREP = conditions: HEK293T SILAC ABPP, NHU5 probe, LC-MS/MS ratio, at 5 µM, stronger effect = lower value
[6] = target: Protein phosphatase methylesterase 1 (Homo sapiens) (UniProt Q9Y570); conditions: HEK293T SILAC ABPP, NHU5 probe, LC-MS/MS ratio; PPME1; at 5 µM; stronger effect = lower value
Chain of Protein phosphatase methylesterase 1 (Homo sapiens) (Q9Y570 whole entry, looked up): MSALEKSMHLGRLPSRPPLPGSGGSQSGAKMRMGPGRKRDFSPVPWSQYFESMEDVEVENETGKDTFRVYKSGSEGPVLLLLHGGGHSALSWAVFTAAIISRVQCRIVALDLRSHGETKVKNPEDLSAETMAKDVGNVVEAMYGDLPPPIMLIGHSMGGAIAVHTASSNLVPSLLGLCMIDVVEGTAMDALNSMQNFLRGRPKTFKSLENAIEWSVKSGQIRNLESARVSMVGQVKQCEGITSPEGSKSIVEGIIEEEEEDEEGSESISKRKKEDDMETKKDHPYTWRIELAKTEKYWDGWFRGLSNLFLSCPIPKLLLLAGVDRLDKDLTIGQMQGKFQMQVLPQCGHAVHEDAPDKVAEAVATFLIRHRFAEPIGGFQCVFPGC

TPP2 = conditions: HEK293T SILAC ABPP, NHU5 probe, LC-MS/MS ratio, at 5 µM, stronger effect = lower value

SILAC ratio (compound/DMSO) (ABHD10): 1.1 (inactive) | SILAC ratio (compound/DMSO) (ABHD12): 1.43 (inactive) | SILAC ratio (compound/DMSO) (ABHD6): 1.25 (inactive) | SILAC ratio (compound/DMSO) [1]: 0.21 | SILAC ratio (compound/DMSO) [2]: 1.1 (inactive) | SILAC ratio (compound/DMSO) [3]: 1.22 (inactive) | SILAC ratio (compound/DMSO) (CTSA): 1.17 (inactive) | SILAC ratio (compound/DMSO) (DDHD1): 1.06 (inactive) | SILAC ratio (compound/DMSO) [4]: 1.25 (inactive) | SILAC ratio (compound/DMSO) (ESD): 1.08 (inactive) | SILAC ratio (compound/DMSO) [5]: 1.14 (inactive) | SILAC ratio (compound/DMSO) (LYPLAL1): 1.33 (inactive) | SILAC ratio (compound/DMSO) (PLA2G4A): 1.43 (inactive) | SILAC ratio (compound/DMSO) (PNPLA6): 1.2 (inactive) | SILAC ratio (compound/DMSO) (PNPLA8): 0.97 (inactive) | SILAC ratio (compound/DMSO) (PREP): 1.1 (inactive) | SILAC ratio (compound/DMSO) [6]: 1.08 (inactive) | SILAC ratio (compound/DMSO) (TPP2): 1.1 (inactive)
SMILES: O=C(CN1CCN(C(=O)c2ccco2)CC1)Nc1cc(C(F)(F)F)ccc1Cl
